Test results published in US20260217701A1, “SELECTIVE BET INHIBITORS AND USES THEREOF” (Tay Therapeutics Limited, priority 2022, published 2026).
“And” between values parts separate entries of the source, which are not always exact repeats. Identical values can stand only once. Like-named read-outs stand apart in the source and are kept apart here.

Key:
hydroxyproline = assay: UUO study: hydroxyproline levels; type: in vivo, rats
Text: Table 31 and FIGS. 27B-27C depict hydroxyproline levels in sham rats (black bar in FIG. 27B; square shape in FIG. 27C), UUO rats treated with vehicle (grey bar in FIG. 27B; circle shape in FIG. 27C), and UUO rats treated with Compound A (white bar in FIG. 27B; triangle shape in FIG. 27C).

[1] = CIA study: pharmacokinetics / plasma concentration after oral administration; type: in vivo, Lewis rats; conditions: for concentration at 21 day: oral
[2] = CIA-induced animals, day 0, 3 mg/kg, average
[3] = CIA-induced animals, day 0, 3 mg/kg, individual test subjects
[4] = CIA-induced animals, day 21, 3 mg/kg, average
[5] = CIA-induced animals, day 21, 3 mg/kg, individual test subjects

SMILES: Cn1cc(-c2ccccc2)c(-c2cn(C)c(=O)c3[nH]c(-c4cnn(C(F)(F)F)c4)cc23)cc1=O [Compound A, 6-methyl-4-(1-methyl-2-oxo-5-phenyl-1,2-dihydropyridin-4-yl)-2-(1-(trifluoromethyl)-1H-pyrazol-4-yl)-1,6-dihydro-7H-pyrrolo[2,3-c]pyridin-7-one]
- Final Hydroxyproline Con., Mean (hydroxyproline; UUO rats + Compound A, group mean of 8): 0.66 μg/mg tissue
- Final Hydroxyproline Con., Mean ± SEM (hydroxyproline; UUO rats + Compound A, group of 8): 0.66 ± 0.05 μg/mg tissue
- Final Hydroxyproline Con. (hydroxyproline; UUO rats + Compound A, individual animals): 0.69 μg/mg tissue and 0.86 μg/mg tissue and 0.63 μg/mg tissue and 0.61 μg/mg tissue (2×) and 0.64 μg/mg tissue and 0.44 μg/mg tissue and 0.80 μg/mg tissue
- Hydroxyproline levels, difference between experimental groups (hydroxyproline; UUO rats, 10 mg/kg): No significant differences
- AUClast/D (Mean) [1, 2]: 509 mg·h/mL
- AUC—%Extrap—obs (Mean) [1, 2]: 14.0%
- AUCInf [1, 3]: 1.393 µg·h/mL and 1.454 µg·h/mL
- AUClast [1, 3]: 1.25 µg·h/mL and 1.264 µg·h/mL
- AUC—%Extrap—obs [1, 3]: 18.6% and 10.3% and 13.1%
- Cmax [1, 3]: 0.0779 µg/mL and 0.0826 µg/mL
- MRTInf—obs [1, 3]: 10.7 h and 11.8 h
- T1/2 [1, 3]: 7.03 h and 7.60 h
- AUClast/D (Mean) [1, 4]: 246 mg·h/mL
- AUC—%Extrap—obs (Mean) [1, 4]: 17.3%
- MRTlnf—obs (Mean) [1, 4]: 13.5 h
- AUCInf [1, 5]: 1.059 µg·h/mL and 0.985 µg·h/mL
- AUClast [1, 5]: 0.826 µg·h/mL and 0.784 µg·h/mL
- AUC—%Extrap—obs [1, 5]: 9.67% and 22.0% and 20.4%
- Cmax [1, 5]: 0.0512 µg/mL and 0.0457 µg/mL
- MRTInf—obs [1, 5]: 15.5 h and 14.9 h
- T1/2 [1, 5]: 10.3 h and 9.68 h
- Plasma Concentration ([1]; Day 21, CIA rats, 1 mg/kg): 0.0128 µg/mL and 0.0145 µg/mL and 0.0139 µg/mL and 0.0143 µg/mL and 0.0211 µg/mL and 0.0206 µg/mL
- Plasma Concentration ([1]; Day 21, CIA rats, 10 mg/kg): 0.181 µg/mL and 0.24 µg/mL and 0.23 µg/mL and 0.264 µg/mL and 0.174 µg/mL and 0.255 µg/mL and 0.248 µg/mL
- concentration at 21 day ([1]; Lewis, rat, plasma, 1 mg/kg, Day 21, CIA rats, 1 mg/kg, read-out: Plasma Concentration): 0.013 µg/mL
- concentration at 21 day ([1]; Lewis, rat, plasma, 1 mg/kg, Group 5 (CIA + Compound A 1 mg/kg), read-out: Day 21 Mean Plasma Concentration): 0.0155 µg/mL
- concentration at 21 day ([1]; Lewis, rat, plasma, 3 mg/kg, Group 6 (CIA + Compound A 3 mg/kg), read-out: Day 21 Mean Plasma Concentration): 0.0495 µg/mL
- concentration at 21 day ([1]; Lewis, rat, plasma, 10 mg/kg, Day 21, CIA rats, 10 mg/kg, read-out: Plasma Concentration): 0.232 µg/mL
- concentration at 21 day ([1]; Lewis, rat, plasma, 10 mg/kg, Group 7 (CIA + Compound A 10 mg/kg), read-out: Day 21 Mean Plasma Concentration): 0.221 µg/mL
- AUC(0-inf) ([1]; Lewis, rat, plasma, po, 3 mg/kg, CIA-induced animals, day 0, 3 mg/kg, average, read-out: AUCInf (Mean)): 1.8 µg·h/mL
- AUC(0-t) ([1]; Lewis, rat, plasma, po, 3 mg/kg, CIA-induced animals, day 0, 3 mg/kg, average, read-out: AUClast (Mean)): 1.53 µg·h/mL
- Cmax ([1]; Lewis, rat, plasma, po, 3 mg/kg, CIA-induced animals, day 0, 3 mg/kg, average, read-out: Cmax (Mean)): 0.095 µg/mL
- MRT inf ([1]; Lewis, rat, plasma, po, 3 mg/kg, CIA-induced animals, day 0, 3 mg/kg, average, read-out: MRTInf—obs (Mean)): 12.2 h
- half-life ([1]; Lewis, rat, plasma, po, 3 mg/kg, CIA-induced animals, day 0, 3 mg/kg, average, read-out: T1/2 (Mean) (converted)): 7.94 h
- Tmax ([1]; Lewis, rat, plasma, po, 3 mg/kg, CIA-induced animals, day 0, 3 mg/kg, average, read-out: Tmax (Mean)): 5.33 h
- AUC(0-inf) ([1]; Lewis, rat, plasma, po, 3 mg/kg, CIA-induced animals, day 0, 3 mg/kg, individual test subjects, read-out: AUCInf): 2.54 µg·h/mL
- AUC(0-t) ([1]; Lewis, rat, plasma, po, 3 mg/kg, CIA-induced animals, day 0, 3 mg/kg, individual test subjects, read-out: AUClast): 2.07 µg·h/mL
- Cmax ([1]; Lewis, rat, plasma, po, 3 mg/kg, CIA-induced animals, day 0, 3 mg/kg, individual test subjects, read-out: Cmax): 0.123 µg/mL
- MRT inf ([1]; Lewis, rat, plasma, po, 3 mg/kg, CIA-induced animals, day 0, 3 mg/kg, individual test subjects, read-out: MRTInf—obs): 14.1 h
- half-life ([1]; Lewis, rat, plasma, po, 3 mg/kg, CIA-induced animals, day 0, 3 mg/kg, individual test subjects, read-out: T1/2 (converted)): 9.19 h
- Tmax ([1]; Lewis, rat, plasma, po, 3 mg/kg, CIA-induced animals, day 0, 3 mg/kg, individual test subjects, read-out: Tmax): 6 h
- AUC(0-t) ([1]; Lewis, rat, plasma, po, 3 mg/kg, CIA-induced animals, day 21, 3 mg/kg, average, read-out: AUClast (Mean)): 0.738 µg·h/mL
- Cmax ([1]; Lewis, rat, plasma, po, 3 mg/kg, CIA-induced animals, day 21, 3 mg/kg, average, read-out: Cmax (Mean)): 0.0484 µg/mL
- half-life ([1]; Lewis, rat, plasma, po, 3 mg/kg, CIA-induced animals, day 21, 3 mg/kg, average, read-out: T1/2 (Mean) (converted)): 8.9 h
- Tmax ([1]; Lewis, rat, plasma, po, 3 mg/kg, CIA-induced animals, day 21, 3 mg/kg, average, read-out: Tmax (Mean)): 5.33 h
- AUC(0-inf) ([1]; Lewis, rat, plasma, po, 3 mg/kg, CIA-induced animals, day 21, 3 mg/kg, individual test subjects, read-out: AUCInf): 0.668 µg·h/mL
- AUC(0-t) ([1]; Lewis, rat, plasma, po, 3 mg/kg, CIA-induced animals, day 21, 3 mg/kg, individual test subjects, read-out: AUClast): 0.604 µg·h/mL
- Cmax ([1]; Lewis, rat, plasma, po, 3 mg/kg, CIA-induced animals, day 21, 3 mg/kg, individual test subjects, read-out: Cmax): 0.0483 µg/mL
